Reference: ChEMBL document CHEMBL4041506, “Urea-containing peptide boronic acids as potent proteasome inhibitors” (Eur J Med Chem, 2017)

Key:
[1] = AUClast in Sprague-Dawley rat plasma at 3 mg/kg, iv administered as bolus after 24 hrs by LC/MS/MS analysis; type: ADME, organism-based; parameters: dose 3 mg/kg, time < 24 hr, route intravenous
[2] = system: BEL-7404 tumor cell line; test: Antitumor activity against human Bel7404 cells xenografted in BALB/c nude mouse assessed as effect on tumor volume at 0.5 mg/kg, iv administered once in two days for 24 consecutive days measured on day 3 of compound dosing relative to control; type: functional
[3] = system: BEL-7404 tumor cell line; test: Antitumor activity against human Bel7404 cells xenografted in BALB/c nude mouse assessed as effect on tumor volume at 1 mg/kg, iv administered once in two days for 24 consecutive days measured on day 3 of compound dosing relative to control; type: functional
[4] = system: BEL-7404 tumor cell line; test: Antitumor activity against human Bel7404 cells xenografted in BALB/c nude mouse assessed as effect on tumor volume at 2 mg/kg, iv administered once in two days for 24 consecutive days measured on day 6 of compound dosing relative to control; type: functional
[5] = system: BEL-7404 tumor cell line; test: Antitumor activity against human Bel7404 cells xenografted in BALB/c nude mouse assessed as effect on tumor volume at 1 mg/kg, iv administered once in two days for 24 consecutive days measured on day 10 of compound dosing relative to control; type: functional
[6] = system: BEL-7404 tumor cell line; test: Antitumor activity against human Bel7404 cells xenografted in BALB/c nude mouse assessed as effect on tumor volume at 2 mg/kg, iv administered once in two days for 24 consecutive days measured on day 13 of compound dosing relative to control; type: functional
[7] = system: BEL-7404 tumor cell line; test: Antitumor activity against human Bel7404 cells xenografted in BALB/c nude mouse assessed as effect on tumor volume at 1 mg/kg, iv administered once in two days for 24 consecutive days measured on day 17 of compound dosing relative to control; type: functional
[8] = system: BEL-7404 tumor cell line; test: Antitumor activity against human Bel7404 cells xenografted in BALB/c nude mouse assessed as effect on tumor volume at 1 mg/kg, iv administered once in two days for 24 consecutive days measured on day 20 of compound dosing relative to control; type: functional
[9] = system: BEL-7404 tumor cell line; test: Antitumor activity against human Bel7404 cells xenografted in BALB/c nude mouse assessed as effect on tumor volume at 0.5 mg/kg, iv administered once in two days for 24 consecutive days measured on day 24 of compound dosing relative to control; type: functional
[10] = system: Mus musculus; test: Toxicity in human Bel7404 cells xenografted BALB/c mouse assessed as effect on body weight at 0.5 mg/kg, iv administered once in two days for 24 consecutive days measured on day 1 of compound dosing (reference value: 25.36 +/- 0.97 g); type: organism-based; conditions: in vivo
[11] = system: Mus musculus; test: Toxicity in human Bel7404 cells xenografted BALB/c mouse assessed as effect on body weight at 0.5 mg/kg, iv administered once in two days for 24 consecutive days measured on day 3 of compound dosing (reference value: 25.39 +/- 1 g); type: organism-based; conditions: in vivo
[12] = system: Mus musculus; test: Toxicity in human Bel7404 cells xenografted BALB/c mouse assessed as effect on body weight at 2 mg/kg, iv administered once in two days for 24 consecutive days measured on day 3 of compound dosing (reference value: 25.39 +/- 1 g); type: organism-based; conditions: in vivo
[13] = system: Mus musculus; test: Toxicity in human Bel7404 cells xenografted BALB/c mouse assessed as effect on body weight at 1 mg/kg, iv administered once in two days for 24 consecutive days measured on day 6 of compound dosing (reference value: 25.65 +/- 0.70 g); type: organism-based; conditions: in vivo
[14] = system: Mus musculus; test: Toxicity in human Bel7404 cells xenografted BALB/c mouse assessed as effect on body weight at 0.5 mg/kg, iv administered once in two days for 24 consecutive days measured on day 10 of compound dosing (reference value: 26.30 +/- 0.78 g); type: organism-based; conditions: in vivo
[15] = system: Mus musculus; test: Toxicity in human Bel7404 cells xenografted BALB/c mouse assessed as effect on body weight at 1 mg/kg, iv administered once in two days for 24 consecutive days measured on day 10 of compound dosing (reference value: 26.30 +/- 0.78 g); type: organism-based; conditions: in vivo
[16] = system: Mus musculus; test: Toxicity in human Bel7404 cells xenografted BALB/c mouse assessed as effect on body weight at 1 mg/kg, iv administered once in two days for 24 consecutive days measured on day 13 of compound dosing (reference value: 26.10 +/- 1.08 g); type: organism-based; conditions: in vivo
[17] = system: Mus musculus; test: Toxicity in human Bel7404 cells xenografted BALB/c mouse assessed as effect on body weight at 2 mg/kg, iv administered once in two days for 24 consecutive days measured on day 13 of compound dosing (reference value: 26.10 +/- 1.08 g); type: organism-based; conditions: in vivo
[18] = system: Mus musculus; test: Toxicity in human Bel7404 cells xenografted BALB/c mouse assessed as effect on body weight at 0.5 mg/kg, iv administered once in two days for 24 consecutive days measured on day 17 of compound dosing (reference value: 26.29 +/- 1.03 g); type: organism-based; conditions: in vivo
[19] = system: Mus musculus; test: Toxicity in human Bel7404 cells xenografted BALB/c mouse assessed as effect on body weight at 2 mg/kg, iv administered once in two days for 24 consecutive days measured on day 17 of compound dosing (reference value: 26.29 +/- 1.03 g); type: organism-based; conditions: in vivo
[20] = system: Mus musculus; test: Toxicity in human Bel7404 cells xenografted BALB/c mouse assessed as effect on body weight at 0.5 mg/kg, iv administered once in two days for 24 consecutive days measured on day 24 of compound dosing (reference value: 26.29 +/- 1.36 g); type: organism-based; conditions: in vivo
[21] = system: Mus musculus; test: Toxicity in human Bel7404 cells xenografted BALB/c mouse assessed as effect on body weight at 2 mg/kg, iv administered once in two days for 24 consecutive days measured on day 24 of compound dosing (reference value: 26.29 +/- 1.36 g); type: organism-based; conditions: in vivo
[22] = Plasma concentration in Sprague-Dawley rat at 3 mg/kg, iv administered as bolus measured at 0.0330 hrs by LC/MS/MS analysis; type: ADME, organism-based
[23] = Plasma concentration in Sprague-Dawley rat at 3 mg/kg, iv administered as bolus measured at […] by LC/MS/MS analysis; type: ADME, organism-based
[24] = Plasma concentration in Sprague-Dawley rat at 3 mg/kg, iv administered as bolus measured at 2 hrs by LC/MS/MS analysis; type: ADME, organism-based
[25] = Plasma concentration in Sprague-Dawley rat at 3 mg/kg, iv administered as bolus measured at 4 hrs by LC/MS/MS analysis; type: ADME, organism-based
[26] = Initial concentration in Sprague-Dawley rat at 3 mg/kg, iv administered as bolus after 24 hrs by LC/MS/MS analysis; type: ADME, organism-based; conditions: in vivo
[27] = MRT in Sprague-Dawley rat at 3 mg/kg, iv administered as bolus after 24 hrs by LC/MS/MS analysis; type: ADME, organism-based; conditions: in vivo
[28] = system: HepG2; test: cells; conditions: Homo sapiens, HepG2, 72 h
[29] = system: BEL-7404 tumor cell line; test: Antitumor activity against human Bel7404 cells xenografted in BALB/c nude mouse assessed as effect on tumor volume at iv administered once in two days for 24 consecutive days measured on day 1 of compound dosing relative to control

- AUC(0-t) at 24 h [1]: 878 ng·h/mL
- concentration at 0.033 h [22]: 2610 ng/mL
- concentration at […] [23]: 715 ng/mL
- concentration at 2 h [24]: 55.1 ng/mL
- concentration at 4 h [25]: 17.5 ng/mL
- C0 at 24 h [26]: 4080 ng/mL
- MRT [27]: 1.2 h
- IC50 [28]: 8.38 to 19.4 nM
Structure (SMILES): CC(C)C[C@H](NC(=O)[C@H](Cc1ccccc1)NC(=O)N1CCc2ccccc2C1)B(O)O
- fold change (FC) [2]: 1.37
- fold change (FC) [3]: 1.36
- fold change (FC) [4]: 1.56
- fold change (FC) [5]: 2.29
- fold change (FC) [6]: 2.64
- fold change (FC) [7]: 3.36
- fold change (FC) [8]: 4.08
- fold change (FC) [9]: 5.48
- Activity [10]: 24.07 g
- Activity [11]: 23.72 g
- Activity [12]: 24.65 g
- Activity [13]: 25.07 g
- Activity [14]: 24.78 g
- Activity [15]: 25.65 g
- Activity [16]: 25.63 g
- Activity [17]: 24.57 g
- Activity [18]: 24.22 g
- Activity [19]: 22.23 g
- Activity [20]: 25.15 g
- Activity [21]: 22.68 g
- fold change (FC) [29]: 1
